Holding throughout (test): fluorescence titration (ligand quenching)
Conditions in all cases: 125 mM K+, 5 mM Mg2+; 40 mM HEPES pH 7.4, 25 °C, 50 nM ligand, RNA titrated, Hill fit

The subject of assay [1] is R10K6 (RNA, aptamer) GGGAGACGCAACUGAAUGAAAAUGUCAUUCAAGACUAGGUUGUGACUGCUUAGGCAGUUGUGGACGGCUAAGCCCACCAGAGGUCCGUAACUAGUCGCGUCAC
Assay [2] concerns R10K6_V11 (RNA, aptamer) GGGAGACGCAACAGACUAGGUUGUGACUGCUUAGGCAGUUGUGGACGGCUAAGCCCACCAGAGGUCCGUAACUAGUCGCGUCAC
The subject of assay [3] is V8 (R10K6 without stem P5a) (RNA, aptamer) GGGAGACGCAACUGAAUGAAAAUGUCAUUCAAGACUAGGUUGUGACUGCUUAGGCAGUUGUGGACACCAGAGGUCCGUAACUAGUCGCGUCAC
Assay [4] concerns V10 (R10K6 with changed J5a/5) (RNA, aptamer) GGGAGACGCAACUGAAUGAAAAUGUCAUUCAAGACUAGGUUGUGACUGCUUAGGCAGUUGUGGACGGCUAAGCCCAAACAAAGUCCGUAACUAGUCGCGUCAC
The subject of assay [5] is V13 (R10K6 ∆P1∆P2) (RNA, aptamer) GACUAGGUUGUGACUGCUUAGGCAGUUGUGGACGGCUAAGCCCACCAGAGGUCCGUAACUAGUC
Assay [6] has as its system V4 (R10K6 without P5 and P5a) (RNA, aptamer) GGGAGACGCAACUGAAUGAAAAUGUCAUUCAAGACUAGGUUGUGACUGCUUAGGCAGUUGUAACUAGUCGCGUCAC
Assay [7] deals with V17 (R10K6 with shortened P4) (RNA, aptamer) GGGAGACGCAACUGAAUGAAAAUGUCAUUCAAGACUAGGUUGUGACAAAGGUUGUGGACGGCUAAGCCCACCAGAGGUCCGUAACUAGUCGCGUCAC

Turning to `CCN1CCN(c2cc3c(cc2F)c(=O)c(C(=O)O)cn3C2CC2)CC1`, the binding result in assay [1] was “yes”.
In the case of `CCn1cc(C(=O)O)c(=O)c2cc(F)c(N3CCNCC3)cc21`, the binding entry in assay [1] was “yes”.
On to `CN1C[C@@H]2C[C@H]1CN2c1cc2c(cc1F)c(=O)c(C(=O)O)cn2C1CC1`, for which the binding entry in assay [1] is reported as “yes”.
Turning to `O=C(O)c1cn(C2CC2)c2cc(N3CCNCC3)c(F)cc2c1=O`, the KD is given as 31 nM in assay [1]; 36 nM in assay [2]; 76 nM in assay [3]; 101 nM in assay [4]; 473 nM in assay [5]. Moreover, the binding result in assay [6] and in assay [7] was “no” each time.
For `O=c1ccn(C2CC2)c2cc(N3CCNCC3)c(F)cc12`, the binding entry in assay [1] is reported as “weak”.

As usually defined, the KD is the equilibrium constant for the complex coming apart.

The values above are taken from PMC6468496 (2019).
